Read-outs that look alike come from different tables or passages of the source.
Legend:
AEP [1] = biological target: T1, AEP (Rattus norvegicus, UniProt Q9R0J8); assay: AEP inhibition in cultured primary neurons; type: cell-based
T1 construct: endogenous in cells; host or cells: primary rat cortical neurons
T1 sequence (Q9R0J8 18-435): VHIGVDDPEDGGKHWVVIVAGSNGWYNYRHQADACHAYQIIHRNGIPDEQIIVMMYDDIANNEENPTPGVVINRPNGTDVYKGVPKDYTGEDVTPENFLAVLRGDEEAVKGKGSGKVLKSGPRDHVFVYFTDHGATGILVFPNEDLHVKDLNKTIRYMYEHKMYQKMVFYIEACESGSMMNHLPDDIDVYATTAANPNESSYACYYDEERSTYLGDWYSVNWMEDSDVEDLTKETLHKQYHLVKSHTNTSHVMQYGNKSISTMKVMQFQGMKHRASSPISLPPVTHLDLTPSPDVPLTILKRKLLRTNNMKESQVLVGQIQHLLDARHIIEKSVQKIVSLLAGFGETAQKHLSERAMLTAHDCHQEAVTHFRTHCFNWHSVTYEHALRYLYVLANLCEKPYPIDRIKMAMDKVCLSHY

P-glycoprotein (MDR1) = biological target: T2, P-glycoprotein (MDR1) (Homo sapiens, UniProt P08183); assay: MDR1-MDCKII permeability assay (P-glycoprotein efflux); type: in vitro ADME; conditions: dog, MDCK-MDR1; for Papp A→B: first value in brackets; for Papp B→A: second value in brackets
T2 construct: expressed in transfected cells; host or cells: MDCKII
T2 sequence (P08183 whole entry): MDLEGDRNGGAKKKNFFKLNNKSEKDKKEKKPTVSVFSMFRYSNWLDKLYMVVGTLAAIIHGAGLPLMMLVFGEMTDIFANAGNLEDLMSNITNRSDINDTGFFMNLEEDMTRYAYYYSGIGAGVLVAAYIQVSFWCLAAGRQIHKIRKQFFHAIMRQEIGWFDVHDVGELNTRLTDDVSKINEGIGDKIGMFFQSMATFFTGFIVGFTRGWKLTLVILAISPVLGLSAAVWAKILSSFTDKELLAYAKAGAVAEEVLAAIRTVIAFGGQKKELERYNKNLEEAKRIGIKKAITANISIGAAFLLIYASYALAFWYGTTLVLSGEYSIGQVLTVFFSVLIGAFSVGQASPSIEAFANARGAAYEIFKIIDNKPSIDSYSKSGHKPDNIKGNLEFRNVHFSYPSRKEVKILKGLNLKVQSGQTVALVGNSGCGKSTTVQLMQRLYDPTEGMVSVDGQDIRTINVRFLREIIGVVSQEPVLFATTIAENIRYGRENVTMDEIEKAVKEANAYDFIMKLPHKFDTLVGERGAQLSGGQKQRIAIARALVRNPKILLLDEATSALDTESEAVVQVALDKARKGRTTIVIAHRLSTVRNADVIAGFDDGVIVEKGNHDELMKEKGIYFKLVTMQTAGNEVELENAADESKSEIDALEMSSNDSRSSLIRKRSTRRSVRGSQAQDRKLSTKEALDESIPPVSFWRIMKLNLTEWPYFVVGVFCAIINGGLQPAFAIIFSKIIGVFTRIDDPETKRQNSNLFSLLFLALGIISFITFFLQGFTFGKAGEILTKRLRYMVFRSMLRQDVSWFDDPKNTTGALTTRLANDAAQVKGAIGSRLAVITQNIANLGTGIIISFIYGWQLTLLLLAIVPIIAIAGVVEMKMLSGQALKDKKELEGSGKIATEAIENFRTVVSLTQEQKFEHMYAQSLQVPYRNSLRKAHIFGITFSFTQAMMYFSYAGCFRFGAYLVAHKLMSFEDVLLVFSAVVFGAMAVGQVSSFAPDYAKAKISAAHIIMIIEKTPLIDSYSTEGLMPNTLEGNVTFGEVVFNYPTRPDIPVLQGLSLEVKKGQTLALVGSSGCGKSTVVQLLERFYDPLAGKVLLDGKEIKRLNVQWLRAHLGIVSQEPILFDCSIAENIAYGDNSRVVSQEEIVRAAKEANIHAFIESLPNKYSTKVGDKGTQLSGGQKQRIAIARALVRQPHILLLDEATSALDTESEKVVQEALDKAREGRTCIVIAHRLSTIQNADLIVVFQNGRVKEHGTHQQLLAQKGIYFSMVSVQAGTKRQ

Caco-2 permeability = type: in vitro ADME; conditions: human; for Papp A→B: first value of the cell
[2] = Plasma protein binding, mouse; type: in vitro ADME
[3] = Stability in mouse liver microsomes; type: in vitro ADME; conditions: for half-life: read-out: Stability-Microsomes T1/2
[4] = Stability in human liver microsomes; type: in vitro ADME; conditions: for half-life: read-out: Stability-Microsomes T1/2
recombinant AEP enzyme = biological target: T3, recombinant AEP enzyme (Homo sapiens, UniProt Q99538); assay: In vitro AEP enzymatic inhibition assay; type: biochemical; conditions: read-out: IC50 toward recombinant AEP enzyme (in vitro)
T3 sequence (Q99538 18-433): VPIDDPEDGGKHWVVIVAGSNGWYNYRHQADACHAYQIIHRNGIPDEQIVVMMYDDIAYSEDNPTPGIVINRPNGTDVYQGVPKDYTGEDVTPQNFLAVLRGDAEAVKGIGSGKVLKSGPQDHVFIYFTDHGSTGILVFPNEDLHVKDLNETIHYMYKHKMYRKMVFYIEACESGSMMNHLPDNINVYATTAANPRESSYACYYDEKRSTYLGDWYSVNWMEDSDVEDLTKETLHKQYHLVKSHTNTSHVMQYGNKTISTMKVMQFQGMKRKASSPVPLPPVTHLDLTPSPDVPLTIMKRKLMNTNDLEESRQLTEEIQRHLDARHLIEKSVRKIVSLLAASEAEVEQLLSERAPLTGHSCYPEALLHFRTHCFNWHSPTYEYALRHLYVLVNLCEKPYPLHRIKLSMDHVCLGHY
Method: AEP activity was assessed as previously described [21]. Tissue homogenates (10 ​μg protein) were incubated with 20 ​μM AEP-specific fluorogenic substrate in 200 ​μL of optimized assay buffer (20 ​mM citric acid, 60 ​mM Na2HPO4, 1 ​mM EDTA, 0.1 ​% CHAPS, 1 ​mM DTT; pH 6.0) to quantify enzymatic activity. Reactions were performed at 37 ​°C in a temperature-controlled microplate reader (BioTek Synergy HTX Multimode Reader, Agilent, California, USA). AEP-mediated cleavage of the substrate, liberating fluorescent 7-amino-4-methylcoumarin (AMC), was monitored kinetically by measuring emission at 460 ​nm (excitation: 380 ​nm) every 5 ​min over 60-min. Fluorescence values were normalized to background signal from substrate-free controls, and enzyme activity was calculated as the rate of AMC generation (RFU/min/μg protein) during the linear phase of the reaction.

[5] = Stability in mouse plasma; type: in vitro ADME; conditions: read-out: Stability-Plasma T1/2
[6] = Stability in human plasma; type: in vitro ADME; conditions: read-out: Stability-Plasma T1/2
[7] = Plasma protein binding, human; type: in vitro ADME
Solubility (pH 7.4, PBS) = type: physicochemical
[8] = Stability in human hepatocytes; type: in vitro ADME; conditions: for half-life: read-out: Stability-Hepatocytes T1/2
[9] = PAMPA-BBB permeability assay; type: in vitro ADME; conditions: read-out: Permeability-PAMPA-BBB Pe
[10] = Stability in mouse hepatocytes; type: in vitro ADME
hERG K+ channel = hERG K+ channel (Homo sapiens, UniProt Q12809); assay: hERG inhibition assay
Chain of hERG K+ channel (Q12809 whole entry): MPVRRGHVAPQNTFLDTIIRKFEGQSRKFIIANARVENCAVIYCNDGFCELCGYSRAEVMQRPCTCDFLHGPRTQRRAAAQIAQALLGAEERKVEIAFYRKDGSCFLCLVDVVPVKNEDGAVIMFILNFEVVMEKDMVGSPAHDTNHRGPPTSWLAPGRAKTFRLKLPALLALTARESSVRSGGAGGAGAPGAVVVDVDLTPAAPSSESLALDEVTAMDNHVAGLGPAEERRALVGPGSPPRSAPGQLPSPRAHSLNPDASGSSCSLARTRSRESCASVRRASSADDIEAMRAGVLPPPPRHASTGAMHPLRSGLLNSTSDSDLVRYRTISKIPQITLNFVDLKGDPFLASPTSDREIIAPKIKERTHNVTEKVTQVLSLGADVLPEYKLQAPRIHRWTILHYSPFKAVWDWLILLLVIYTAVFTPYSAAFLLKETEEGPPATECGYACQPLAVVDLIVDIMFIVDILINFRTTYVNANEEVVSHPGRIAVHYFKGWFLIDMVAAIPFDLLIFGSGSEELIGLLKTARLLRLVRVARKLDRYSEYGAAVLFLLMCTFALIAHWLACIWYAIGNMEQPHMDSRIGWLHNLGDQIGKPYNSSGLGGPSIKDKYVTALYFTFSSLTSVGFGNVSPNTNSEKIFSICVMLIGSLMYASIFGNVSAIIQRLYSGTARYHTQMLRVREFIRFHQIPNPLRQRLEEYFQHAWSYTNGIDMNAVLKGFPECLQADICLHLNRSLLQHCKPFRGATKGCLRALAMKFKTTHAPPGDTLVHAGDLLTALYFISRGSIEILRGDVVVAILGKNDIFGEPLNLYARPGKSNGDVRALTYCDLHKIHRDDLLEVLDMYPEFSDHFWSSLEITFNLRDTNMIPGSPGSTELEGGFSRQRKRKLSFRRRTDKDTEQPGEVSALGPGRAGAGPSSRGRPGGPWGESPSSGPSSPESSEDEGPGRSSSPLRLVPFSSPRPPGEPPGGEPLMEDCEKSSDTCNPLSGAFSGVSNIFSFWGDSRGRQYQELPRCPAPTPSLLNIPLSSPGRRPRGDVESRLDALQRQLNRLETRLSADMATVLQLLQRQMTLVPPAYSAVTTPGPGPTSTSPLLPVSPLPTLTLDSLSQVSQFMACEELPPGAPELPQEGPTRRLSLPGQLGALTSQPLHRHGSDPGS

BCRP = biological target: T4, BCRP (Homo sapiens, UniProt Q9UNQ0); assay: Caco-2-BCRP assay with and without Ko143; type: in vitro ADME; conditions: human, Caco-2, Ko143 0 μM
T4 construct: endogenous in cells; host or cells: Caco-2
T4 sequence (Q9UNQ0 1-655): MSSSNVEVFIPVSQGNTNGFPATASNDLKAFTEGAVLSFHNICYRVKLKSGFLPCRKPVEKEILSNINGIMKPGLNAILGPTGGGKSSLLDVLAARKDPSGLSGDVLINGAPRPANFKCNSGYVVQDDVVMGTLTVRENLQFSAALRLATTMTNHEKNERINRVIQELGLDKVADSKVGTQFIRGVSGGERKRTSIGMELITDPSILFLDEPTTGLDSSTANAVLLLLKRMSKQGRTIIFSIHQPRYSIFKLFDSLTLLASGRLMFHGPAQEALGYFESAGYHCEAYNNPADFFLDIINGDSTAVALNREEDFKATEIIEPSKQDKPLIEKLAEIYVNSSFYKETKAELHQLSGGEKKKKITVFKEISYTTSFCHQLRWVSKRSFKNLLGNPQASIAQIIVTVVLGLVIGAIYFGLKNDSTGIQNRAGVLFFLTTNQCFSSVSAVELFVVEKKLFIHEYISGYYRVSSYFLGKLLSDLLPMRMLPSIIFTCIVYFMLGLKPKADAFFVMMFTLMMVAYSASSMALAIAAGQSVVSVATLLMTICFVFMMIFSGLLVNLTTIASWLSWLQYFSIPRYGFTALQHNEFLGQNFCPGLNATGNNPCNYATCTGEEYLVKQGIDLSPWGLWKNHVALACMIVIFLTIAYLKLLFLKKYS

[11] = parameters: method as in PMID 38030711; conditions: cited from earlier work
AEP [12] = biological target: T5, AEP (Mus musculus, UniProt O89017); assay: Acute PD in 3xTg mice: brain AEP enzymatic activity and immunoblotting; type: in vivo; conditions: 2 h
T5 construct: from tissue; host or cells: brain / hippocampus of 3xTg mice
T5 sequence (O89017 18-435): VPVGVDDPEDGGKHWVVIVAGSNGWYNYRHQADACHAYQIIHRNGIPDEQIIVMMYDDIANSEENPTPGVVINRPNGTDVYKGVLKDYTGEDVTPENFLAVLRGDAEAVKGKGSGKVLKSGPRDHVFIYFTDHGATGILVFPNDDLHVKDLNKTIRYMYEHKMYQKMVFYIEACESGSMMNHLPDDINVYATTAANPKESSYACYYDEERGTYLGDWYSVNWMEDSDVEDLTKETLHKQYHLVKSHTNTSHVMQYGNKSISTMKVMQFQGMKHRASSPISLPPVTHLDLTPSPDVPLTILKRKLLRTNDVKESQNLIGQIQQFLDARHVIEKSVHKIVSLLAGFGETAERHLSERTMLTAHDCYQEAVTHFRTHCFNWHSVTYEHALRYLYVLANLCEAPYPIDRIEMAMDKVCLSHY

AEP [13] = biological target: T5, AEP; assay: Chronic one-month oral treatment of 3xTg mice: AEP activation and substrate cleavage; type: in vivo; conditions: 7.5 mg/kg P.O. daily
[14] = Plasma and brain concentrations after acute oral treatment of 3xTg mice; type: in vivo; conditions: both sexes, mouse, plasma, 7.5 mg/kg, P.O. 7.5 mg/kg, read-out: Concentration in plasma, Serum Mean
Source text: Blood and brain tissues were collected at 0, 0.08, 0.25, 0.5, 1, 2, 4, and 8 h post-administration.

3xTg mice = assay: Y-maze test in 3xTg mice; type: in vivo, mouse; conditions: 7.5 mg/kg P.O. daily, one month
Source text: Blood and brain tissues were collected at 0, 0.08, 0.25, 0.5, 1, 2, 4, and 8 h post-administration. For acute pharmacodynamic (PD) assessments, male and female 3xTg mice received oral doses of NP-11a-isopropyl at 7.5 mg/kg or 15 mg/kg, and blood and brain samples were collected 2 h after treatment.
The Y-maze test was employed to evaluate spatial working memory and spontaneous alternation behavior, a measure of natural exploratory pattern integrity. The apparatus comprised three symmetrical opaque arms (A, B, C; 30 cm length × 8 cm width × 15 cm height) intersecting at 120° angles to form a Y-shaped configuration. Mice were habituated to the maze during a 5-min acclimatization period to minimize novelty-induced anxiety. Following habituation, spontaneous exploration was recorded for 8 min using an overhead camera, with all trials conducted under consistent low-light conditions to reduce environmental stress. EthoVision XT 12 software (Noldus, Wageningen, The Netherlands) quantified total arm entries, entry sequences, and alternation patterns (consecutive entries into three distinct arms without repetition). The maze was thoroughly cleaned with 70 % ethanol between trials to eliminate olfactory cues.

[15] = Stability in rat hepatocytes; type: in vitro ADME
[16] = aqueous buffer, pH 7.4, read-out: Solubility (pH, media)
[17] = read-out: Stability-Hepatocytes T1/2

IC50 (AEP [1]) [nM]	Papp A→B (P-glycoprotein (MDR1)) [×10⁻⁶ cm/s]	Papp B→A (P-glycoprotein (MDR1)) [×10⁻⁶ cm/s]	Papp A→B (Caco-2 permeability) [×10⁻⁶ cm/s]	Plasma Protein F u, plasma(%) [2] [%]	microsomal CLint [3] [µL/min/mg]	half-life [3] [h]	microsomal CLint [4] [µL/min/mg]	half-life [4] [h]	half-life [5] [h]	half-life [6] [h]	Plasma Protein F u, plasma(%) [7] [%]	solubility (Solubility (pH 7.4, PBS); [16]) [mg/mL]	hepatocyte CLint [8] [µL/min/1e6 cells]	half-life [8] [h]	Papp [9] [×10⁻⁶ cm/s]	Papp A→B (BCRP) [×10⁻⁶ cm/s]	Papp B→A (BCRP) [×10⁻⁶ cm/s]	recovery (BCRP; read-out: Recovery (%) A→B) [%]	recovery (BCRP; read-out: Recovery (%) B→A) [%]	Structure (SMILES)	also measured
55	1.44	60.5	11.8	20	302	0.0765	45.5	0.508	> 8	> 8	6.4	5.03	31.3	> 0.738	10.4					OCc1cc(Nc2nnc(N3CCCC3)s2)c2nonc2c1N1CCOCC1 [11a-pentyl]	efflux ratio (P-glycoprotein (MDR1); third value of the cell, not given, read-out: Permeability-MDR1-MDCKII, value after the brackets (efflux ratio)): 42.1; efflux ratio (Caco-2 permeability): 1.28; Papp B→A (Caco-2 permeability; value after the slash, head names only a-b, read-out: Permeability-Caco-2 Papp, second value of the cell (taken as b-a)): 14.8 ×10⁻⁶ cm/s; IC50 (recombinant AEP enzyme): 14.7 nM; solubility (Solubility (pH 7.4, PBS); pH 7.4, aqueous buffer, pH7.4, read-out: Solubility (pH, media)): 12.5 mM; hepatocyte CLint [10]: 28.5 µL/min/1e6 cells; half-life [10, 17]: > 0.81 h; IC50 (hERG K+ channel): > 10000 nM
																29.3	30.5	93.5	102	CC(C)NCC(O)COc1cccc2ccccc12 (centres unmarked) [Propranolol, reference compound]	
45	0.78	29.2	10.6	26.9	19.9	1.93	12.8	> 3	> 8	> 8	43.3	150	4.1	5.67	1.62					CNc1nnc(Nc2cc(CO)c(N3CCOCC3)c3nonc23)s1 [11a]	Brain Cmax ([11]; 11a at 10 mg/kg): 27.012 ng/mL; Brain AUC ([11]; oral administration): 128.980; Plasma AUC ([11]; oral administration): 516.028; AEP enzymatic activity in the brain (AEP [12]; acute P.O. 7.5 and 15 mg/kg, dose-dependent): substantially inhibited; Active AEP band intensity, hippocampus immunoblotting (AEP [12]; acute P.O.): reduced; AEP activation, APP N585 and Tau N368 fragmentation, hippocampus immunoblotting (AEP [13]): gradually reduced; concentration at 2 h [14]: 161 ng/mL; Cognitive function in the Y maze (3xTg mice): significantly improved; hERG IC50 (hERG K+ channel): negative; hepatocyte CLint [15]: 3 µL/min/1e6 cells; half-life [15, 17]: > 8 h
																0.272	0.679	91.5	106	CC(C)(C)NCC(O)COc1cccc2c1CC(O)C(O)C2 (centres unmarked) [Nadolol, reference compound]	
